According to patent US7384757B2 (Bristol-Myers Squibb Company, priority 2004, dated 2008):
Each block holds one compound with its values, some of them ahead of it.

Experiments:
ACC and FAS = assay: ACC/FAS coupled SPA, effect of DMSO and purification reagents; format: biochemical, rat; settings: for effect on the enzyme reaction: ACC/FAS coupled SPA, FIG. 12
Protocol: (§1) The [^3H]-acetyl CoA mix in the final reaction was 20 μM with 0.25 μCi per assay (specific activity of 250 μCi/μmol).
Compound Dilution: Compounds were dissolved in 100% DMSO to obtain 10 mM stock solution. A serial dilution of the compounds in 100% DMSO was made first. Then the compounds were diluted 1:33.3 in buffer to obtain 10× compound solution in 3% DMSO. From this intermediate dilution, a further 10× dilution was made in the assay, resulting 0.3% final DMSO concentration in the assay.
For screening in drug discovery, compounds are routinely dissolved in 100% DMSO and then further diluted to 1% or lower DMSO in the final assay. The effect of DMSO on the ACC/FAS coupled assay was studied. […] At 1% DMSO, the total signal decreased 25% and the S/B was reduced from 15 to 12 with a greater inhibition observed at higher concentrations. Therefore, it may be desirable to keep the final DMSO concentrations in the assay below 0.3%, and not to exceed 1%.
Buffers containing sucrose, glycerol and polyethylene glycol (PEG) were used in the purification of ACC and FAS. In addition, the purified enzymes were stored in buffers containing 20% glycerol to increase long-term stability. In view of this, the effects of glycerol, sucrose and PEG on the enzyme activities were studied with the ACC/FAS coupled SPA.

[1] = target: T1, rat acetyl CoA carboxylase 1 (rACC) (Rattus norvegicus, UniProt P11497); assay: ACC/FAS coupled scintillation proximity assay, reagent titrations (Km, Kact); format: biochemical; settings: other reagents saturating, acetyl CoA 20 μM, 37° C.
T1 construct: from tissue; host or cells: rat liver (rats fasted 36 h, then fed a fat-free carbohydrate diet for 48 h)
Protocol: The sequence of addition of the solution mixtures into each well of a custom 384-well phospholipid coated FLASHPLATE™ was as follows:
Step 1: Add 35 μl of enzyme mix in assay buffer.
Step 2: Add 5 μl of 3% DMSO or 10× compound in 3% DMSO.
Step 3: Incubate at room temperature for 10 min.
Step 5: Incubate the plate at 37° C. for 2 hours.
Step 6: Count the plate in a TOPCOUNT™ NXT for 2 min/well.

[2] = target: T2, rat fatty acid synthase (rFAS) (Rattus norvegicus, UniProt P12785); assay: ACC/FAS coupled SPA, dependence of FAS activity on NADPH; format: biochemical; settings: FAS cofactor, varied in the ACC/FAS coupled assay
T2 construct: from tissue
T2 sequence (P12785 whole entry): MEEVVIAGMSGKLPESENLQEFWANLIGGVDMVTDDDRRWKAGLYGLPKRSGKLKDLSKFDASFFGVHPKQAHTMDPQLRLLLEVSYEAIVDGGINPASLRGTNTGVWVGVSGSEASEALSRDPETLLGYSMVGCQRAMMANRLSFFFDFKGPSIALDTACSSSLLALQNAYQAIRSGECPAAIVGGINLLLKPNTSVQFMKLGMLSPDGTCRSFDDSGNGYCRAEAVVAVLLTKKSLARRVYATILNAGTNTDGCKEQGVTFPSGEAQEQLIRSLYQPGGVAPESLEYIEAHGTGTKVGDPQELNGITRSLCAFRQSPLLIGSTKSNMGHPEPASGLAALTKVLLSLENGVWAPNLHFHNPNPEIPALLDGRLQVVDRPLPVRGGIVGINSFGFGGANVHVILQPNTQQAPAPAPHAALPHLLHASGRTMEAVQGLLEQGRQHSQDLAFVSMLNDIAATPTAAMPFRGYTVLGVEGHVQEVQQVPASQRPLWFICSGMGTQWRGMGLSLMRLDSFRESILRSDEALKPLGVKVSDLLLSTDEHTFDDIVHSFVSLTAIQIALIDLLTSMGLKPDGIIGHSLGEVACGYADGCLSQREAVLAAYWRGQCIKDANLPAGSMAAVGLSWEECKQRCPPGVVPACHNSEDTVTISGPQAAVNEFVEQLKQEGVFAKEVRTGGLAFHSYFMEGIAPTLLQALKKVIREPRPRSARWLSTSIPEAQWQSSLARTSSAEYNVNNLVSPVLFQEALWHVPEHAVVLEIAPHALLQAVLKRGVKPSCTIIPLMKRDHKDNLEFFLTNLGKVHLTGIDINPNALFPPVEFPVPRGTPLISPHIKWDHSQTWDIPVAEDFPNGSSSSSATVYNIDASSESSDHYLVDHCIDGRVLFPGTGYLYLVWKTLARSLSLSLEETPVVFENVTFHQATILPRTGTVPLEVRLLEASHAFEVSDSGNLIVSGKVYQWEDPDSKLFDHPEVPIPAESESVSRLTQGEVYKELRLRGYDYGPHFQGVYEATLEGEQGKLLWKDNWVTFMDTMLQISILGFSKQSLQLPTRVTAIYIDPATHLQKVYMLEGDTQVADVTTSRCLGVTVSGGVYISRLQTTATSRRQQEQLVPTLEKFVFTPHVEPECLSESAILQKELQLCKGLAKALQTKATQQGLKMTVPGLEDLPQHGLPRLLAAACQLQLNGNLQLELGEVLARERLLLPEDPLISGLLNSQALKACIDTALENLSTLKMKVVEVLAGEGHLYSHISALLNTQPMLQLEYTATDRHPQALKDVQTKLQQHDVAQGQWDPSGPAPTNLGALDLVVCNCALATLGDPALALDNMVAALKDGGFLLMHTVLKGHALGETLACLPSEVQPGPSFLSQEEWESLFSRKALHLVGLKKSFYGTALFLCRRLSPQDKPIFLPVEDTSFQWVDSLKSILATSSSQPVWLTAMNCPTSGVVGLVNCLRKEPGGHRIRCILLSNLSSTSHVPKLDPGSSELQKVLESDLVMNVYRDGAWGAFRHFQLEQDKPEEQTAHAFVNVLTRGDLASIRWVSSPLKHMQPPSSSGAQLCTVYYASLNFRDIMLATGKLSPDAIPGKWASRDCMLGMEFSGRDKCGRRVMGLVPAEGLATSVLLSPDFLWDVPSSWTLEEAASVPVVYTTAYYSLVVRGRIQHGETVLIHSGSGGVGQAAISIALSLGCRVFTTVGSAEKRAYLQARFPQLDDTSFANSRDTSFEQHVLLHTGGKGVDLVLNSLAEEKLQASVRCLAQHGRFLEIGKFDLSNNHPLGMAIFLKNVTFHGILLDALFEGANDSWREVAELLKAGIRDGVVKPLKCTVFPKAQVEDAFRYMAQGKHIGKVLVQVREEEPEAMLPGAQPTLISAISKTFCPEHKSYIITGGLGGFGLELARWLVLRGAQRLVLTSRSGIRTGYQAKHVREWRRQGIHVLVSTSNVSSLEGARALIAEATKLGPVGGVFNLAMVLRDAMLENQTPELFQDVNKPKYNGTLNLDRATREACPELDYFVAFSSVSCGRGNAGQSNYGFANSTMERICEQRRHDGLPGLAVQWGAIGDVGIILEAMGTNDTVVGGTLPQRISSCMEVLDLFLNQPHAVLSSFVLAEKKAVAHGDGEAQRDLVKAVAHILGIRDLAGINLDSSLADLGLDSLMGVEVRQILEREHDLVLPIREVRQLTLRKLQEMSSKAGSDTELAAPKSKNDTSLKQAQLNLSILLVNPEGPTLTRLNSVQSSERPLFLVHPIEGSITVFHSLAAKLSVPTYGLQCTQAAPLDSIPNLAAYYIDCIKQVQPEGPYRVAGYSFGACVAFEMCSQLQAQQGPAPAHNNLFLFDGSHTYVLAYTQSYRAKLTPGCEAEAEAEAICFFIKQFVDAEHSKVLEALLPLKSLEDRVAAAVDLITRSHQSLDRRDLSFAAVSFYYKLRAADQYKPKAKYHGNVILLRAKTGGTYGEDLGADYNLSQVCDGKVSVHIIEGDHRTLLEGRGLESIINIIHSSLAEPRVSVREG
Protocol: as §1
The Km values for these FAS substrates can be determined independently. In the present study, the dependence of FAS activity on NADPH was determined by varying the cofactor concentration (FIG. 10). […] In this study, NADPH was maintained at saturating concentration of 100 μM.

[3] = test system: CC(=O)SCCNC(=O)CCNC(=O)[C@H](O)C(C)(C)COP(=O)(O)OP(=O)(O)OC[C@H]1O[C@@H](n2cnc3c(N)ncnc32)[C@H](O)[C@@H]1OP(=O)(O)O; assay: purified protein, by the assay type; settings: other: from saturation curve, other reagents saturating, 37° C., pH 7.6

Compound: C[S+](C)[O-] [DMSO]
effect on the activity of FAS or ACC (ACC and FAS; DMSO concentrations up to 0.3%): no significant effect | decrease of total signal (ACC and FAS; at 1% DMSO): 25%

Kact (half-maximal saturation value) [1]: 6.3 mM
Compound: [Cl-].[Cl-].[Mg+2] [MgCl2]

Km [2]: 28 µM
Compound: NC(=O)C1=CN([C@@H]2O[C@H](COP(=O)(O)OP(=O)(O)OC[C@H]3O[C@@H](n4cnc5c(N)ncnc54)[C@H](OP(=O)(O)O)[C@@H]3O)[C@@H](O)[C@H]2O)C=CC1 [NADPH]

Km ([1]; from saturation curve): 1700 µM
Compound: O=C([O-])O.[Na+] [NaHCO3]

Compound: OCC(O)CO [glycerol]
effect on the enzyme reaction (ACC and FAS): none of these reagents have any significant effect

Compound: OC[C@H]1O[C@@](CO)(O[C@H]2O[C@H](CO)[C@@H](O)[C@H](O)[C@H]2O)[C@@H](O)[C@@H]1O [sucrose]
effect on the enzyme reaction (ACC and FAS): none of these reagents have any significant effect

Compound: rat acetyl CoA carboxylase 1 (rACC) (Rattus norvegicus)
Km [3]: 47 µM
